Test system: rhinovirus B14
Assay: Antiviral activity against HRV-14 in cell culture
Type: functional, organism-based
Conditions: Rhinovirus B

| SMILES | EC50 [µM] |
| --- | --- |
| CCOC(=O)/C=C/[C@H](CCC(N)=O)NC(=O)[C@H](CC(C)C)NC(=O)[C@H](CC(C)C)NC(=O)OCc1ccccc1 | 5.4 |
| CCOC(=O)/C=C/[C@H](CCC(N)=O)NC(=O)[C@H](Cc1ccccc1)NC(=O)[C@H](CC(C)C)NC(=O)OCc1ccccc1 | 0.54 |
| CCOC(=O)/C=C/[C@H](CCC(N)=O)NC(=O)[C@H](Cc1ccccc1)NC(=O)[C@@H](NC(=O)OCc1ccccc1)C(C)(C)CO | 1.3 |
| CCOC(=O)/C=C/[C@H](CCC(N)=O)NC(=O)[C@H](Cc1ccccc1)NC(=O)[C@H](CC(C)C)NC(=O)C1CCCC1 | 0.6 |
| CCOC(=O)/C=C/[C@H](CCC(N)=O)NC(=O)[C@H](Cc1ccccc1)NC(=O)[C@H](CC1CCCCC1)NC(=O)OCc1ccccc1 | 1.2 |
| CCOC(=O)/C=C/[C@H](CCC(N)=O)NC(=O)[C@H](Cc1ccccc1)NC(=O)[C@@H](NC(=O)OCc1ccccc1)C(C)(C)C | 0.32 |
| CCOC(=O)/C=C/[C@H](CCC(N)=O)NC(=O)[C@H](Cc1ccccc1)NC(=O)[C@H](CC(C)C)NC(=O)OC(C)(C)C | 4.5 |
| CCOC(=O)/C=C/[C@H](CCC(N)=O)NC(=O)[C@H](Cc1ccccc1)NC(=O)[C@H](CC(C)C)NC(=O)NCc1ccccc1 | > 100 |
| CCOC(=O)/C=C/[C@H](CCC(N)=O)NC(=O)[C@H](Cc1ccccc1)NC(=O)[C@H](CC(C)C)NC(=O)OC | 1.3 |
| CCOC(=O)/C=C/[C@H](CCC(N)=O)NC(=O)[C@H](Cc1ccc(OC(C)=O)cc1)NC(=O)[C@H](CC(C)C)NC(=O)OCc1ccccc1 | 11 |
| CCOC(=O)/C=C/[C@H](CCC(N)=O)NC(=O)[C@H](Cc1ccccc1)NC(=O)[C@H](CSC)NC(=O)OCc1ccccc1 | 0.18 |
| CCOC(=O)/C=C/[C@H](CCC(N)=O)NC(=O)[C@H](Cc1ccccc1)NC(=O)[C@H](CC(=O)O)NC(=O)OCc1ccccc1 | 2.4 |
| CCOC(=O)/C=C/[C@H](CCC(N)=O)NC(=O)[C@H](Cc1ccccc1)NC(=O)[C@H](CCSC)NC(=O)OCc1ccccc1 | 1.4 |
| CCOC(=O)/C=C/[C@H](CCC(N)=O)NC(=O)[C@H](Cc1ccccc1)NC(=O)[C@H](CO)NC(=O)OCc1ccccc1 | 1.8 |
| CCOC(=O)/C=C/[C@H](CCC(N)=O)NC(=O)[C@H](Cc1ccccc1)NC(=O)[C@H](CC(C)C)NC(=O)c1ccc(Oc2ccccc2)cc1 | 5.2 |
| CCOC(=O)/C=C/[C@H](CCC(N)=O)NC(=O)[C@H](Cc1ccccc1)NC(=O)[C@H](CC(C)C)NC(=O)SC1CCCC1 | 0.18 |
| CCOC(=O)/C=C/[C@H](CCC(N)=O)NC(=O)[C@H](Cc1ccccc1)NC(=O)[C@H](CCCCN)NC(=O)OCc1ccccc1 | 205 |
| CCOC(=O)/C=C/[C@H](CCC(N)=O)NC(=O)[C@H](Cc1ccccc1)NC(=O)[C@H](CC(C)C)NC(=O)C(C)C | 1 |

Biological target: T1, Human rhinovirus A protease (Human rhinovirus sp.) (UniProt Q4U254)
T1 sequence (whole entry): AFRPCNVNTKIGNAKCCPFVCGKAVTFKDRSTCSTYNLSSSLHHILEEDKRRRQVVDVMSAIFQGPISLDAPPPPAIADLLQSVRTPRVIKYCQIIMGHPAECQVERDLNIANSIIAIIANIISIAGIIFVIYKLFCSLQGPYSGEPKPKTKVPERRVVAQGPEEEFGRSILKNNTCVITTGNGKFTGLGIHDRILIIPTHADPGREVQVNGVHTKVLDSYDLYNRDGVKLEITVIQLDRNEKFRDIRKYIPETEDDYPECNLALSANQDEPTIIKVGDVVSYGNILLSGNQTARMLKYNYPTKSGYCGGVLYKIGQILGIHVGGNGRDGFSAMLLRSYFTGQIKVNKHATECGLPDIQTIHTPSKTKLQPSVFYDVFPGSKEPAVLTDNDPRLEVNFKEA
Assay: Binding affinity on human Rhinovirus 3C protease (rhinovirus serotype 14)
Conditions: not given

| SMILES | K obs / 1 [M⁻¹ s⁻¹] |
| --- | --- |
| CCOC(=O)/C=C/[C@H](CCC(N)=O)NC(=O)[C@H](CC(C)C)NC(=O)[C@H](CC(C)C)NC(=O)OCc1ccccc1 | 2300 |
| CCOC(=O)/C=C/[C@H](CCC(N)=O)NC(=O)[C@H](Cc1ccccc1)NC(=O)[C@@H](NC(=O)OCc1ccccc1)C(C)(C)CO | 40000 |
| CCOC(=O)/C=C/[C@H](CCC(N)=O)NC(=O)[C@H](Cc1ccccc1)NC(=O)[C@H](CC(C)C)NC(=O)C1CCCC1 | 23700 |
| CCOC(=O)/C=C/[C@H](CCC(N)=O)NC(=O)[C@H](Cc1ccccc1)NC(=O)[C@H](CC1CCCCC1)NC(=O)OCc1ccccc1 | 39000 |
| CCOC(=O)/C=C/[C@H](CCC(N)=O)NC(=O)[C@H](Cc1ccccc1)NC(=O)[C@@H](NC(=O)OCc1ccccc1)C(C)(C)C | 39800 |
| CCOC(=O)/C=C/[C@H](CCC(N)=O)NC(=O)[C@H](Cc1ccccc1)NC(=O)[C@H](CC(C)C)NC(=O)OC(C)(C)C | 700 |
| CCOC(=O)/C=C/[C@H](CCC(N)=O)NC(=O)[C@H](Cc1ccccc1)NC(=O)[C@H](CC(C)C)NC(=O)NCc1ccccc1 | 6900 |
| CCOC(=O)/C=C/[C@H](CCC(N)=O)NC(=O)[C@H](Cc1ccccc1)NC(=O)[C@H](CC(C)C)NC(=O)OC | 9100 |
| CCOC(=O)/C=C/[C@H](CCC(N)=O)NC(=O)[C@H](Cc1ccc(OC(C)=O)cc1)NC(=O)[C@H](CC(C)C)NC(=O)OCc1ccccc1 | 1200 |
| CCOC(=O)/C=C/[C@H](CCC(N)=O)NC(=O)[C@H](Cc1ccccc1)NC(=O)[C@H](CSC)NC(=O)OCc1ccccc1 | 35200 |
| CCOC(=O)/C=C/[C@H](CCC(N)=O)NC(=O)[C@H](Cc1ccccc1)NC(=O)[C@H](CC(=O)O)NC(=O)OCc1ccccc1 | 35000 |
| CCOC(=O)/C=C/[C@H](CCC(N)=O)NC(=O)[C@H](Cc1ccccc1)NC(=O)[C@H](CCSC)NC(=O)OCc1ccccc1 | 46200 |
| CCOC(=O)/C=C/[C@H](CCC(N)=O)NC(=O)[C@H](Cc1ccccc1)NC(=O)[C@H](CO)NC(=O)OCc1ccccc1 | 39900 |
| CCOC(=O)/C=C/[C@H](CCC(N)=O)NC(=O)[C@H](Cc1ccccc1)NC(=O)[C@H](CC(C)C)NC(=O)c1ccc(Oc2ccccc2)cc1 | 8000 |
| CCOC(=O)/C=C/[C@H](CCC(N)=O)NC(=O)[C@H](Cc1ccccc1)NC(=O)[C@H](CC(C)C)NC(=O)SC1CCCC1 | 114000 |
| CCOC(=O)/C=C/[C@H](CCC(N)=O)NC(=O)[C@H](Cc1ccccc1)NC(=O)[C@H](CCCCN)NC(=O)OCc1ccccc1 | 18600 |
| CCOC(=O)/C=C/[C@H](CCC(N)=O)NC(=O)[C@H](Cc1ccccc1)NC(=O)[C@H](CC(C)C)NC(=O)C(C)C | 18800 |

Test system: rhinovirus B14
Assay: Cytotoxic activity against HRV-14 in cell culture
Type: functional, rhinovirus 14
Conditions: Rhinovirus B

| SMILES | CC50 [µM] |
| --- | --- |
| CCOC(=O)/C=C/[C@H](CCC(N)=O)NC(=O)[C@H](CC(C)C)NC(=O)[C@H](CC(C)C)NC(=O)OCc1ccccc1 | > 320 |
| CCOC(=O)/C=C/[C@H](CCC(N)=O)NC(=O)[C@H](Cc1ccccc1)NC(=O)[C@H](CC(C)C)NC(=O)OCc1ccccc1 | > 320 |
| CCOC(=O)/C=C/[C@H](CCC(N)=O)NC(=O)[C@H](Cc1ccccc1)NC(=O)[C@@H](NC(=O)OCc1ccccc1)C(C)(C)CO | > 100 |
| CCOC(=O)/C=C/[C@H](CCC(N)=O)NC(=O)[C@H](Cc1ccccc1)NC(=O)[C@H](CC(C)C)NC(=O)C1CCCC1 | > 320 |
| CCOC(=O)/C=C/[C@H](CCC(N)=O)NC(=O)[C@H](Cc1ccccc1)NC(=O)[C@H](CC1CCCCC1)NC(=O)OCc1ccccc1 | > 320 |
| CCOC(=O)/C=C/[C@H](CCC(N)=O)NC(=O)[C@H](Cc1ccccc1)NC(=O)[C@@H](NC(=O)OCc1ccccc1)C(C)(C)C | 178 |
| CCOC(=O)/C=C/[C@H](CCC(N)=O)NC(=O)[C@H](Cc1ccccc1)NC(=O)[C@H](CC(C)C)NC(=O)OC(C)(C)C | > 100 |
| CCOC(=O)/C=C/[C@H](CCC(N)=O)NC(=O)[C@H](Cc1ccccc1)NC(=O)[C@H](CC(C)C)NC(=O)NCc1ccccc1 | > 100 |
| CCOC(=O)/C=C/[C@H](CCC(N)=O)NC(=O)[C@H](Cc1ccccc1)NC(=O)[C@H](CC(C)C)NC(=O)OC | > 320 |
| CCOC(=O)/C=C/[C@H](CCC(N)=O)NC(=O)[C@H](Cc1ccc(OC(C)=O)cc1)NC(=O)[C@H](CC(C)C)NC(=O)OCc1ccccc1 | > 320 |
| CCOC(=O)/C=C/[C@H](CCC(N)=O)NC(=O)[C@H](Cc1ccccc1)NC(=O)[C@H](CSC)NC(=O)OCc1ccccc1 | > 100 |
| CCOC(=O)/C=C/[C@H](CCC(N)=O)NC(=O)[C@H](Cc1ccccc1)NC(=O)[C@H](CC(=O)O)NC(=O)OCc1ccccc1 | > 320 |
| CCOC(=O)/C=C/[C@H](CCC(N)=O)NC(=O)[C@H](Cc1ccccc1)NC(=O)[C@H](CCSC)NC(=O)OCc1ccccc1 | > 100 |
| CCOC(=O)/C=C/[C@H](CCC(N)=O)NC(=O)[C@H](Cc1ccccc1)NC(=O)[C@H](CO)NC(=O)OCc1ccccc1 | > 320 |
| CCOC(=O)/C=C/[C@H](CCC(N)=O)NC(=O)[C@H](Cc1ccccc1)NC(=O)[C@H](CC(C)C)NC(=O)c1ccc(Oc2ccccc2)cc1 | > 320 |
| CCOC(=O)/C=C/[C@H](CCC(N)=O)NC(=O)[C@H](Cc1ccccc1)NC(=O)[C@H](CC(C)C)NC(=O)SC1CCCC1 | > 100 |
| CCOC(=O)/C=C/[C@H](CCC(N)=O)NC(=O)[C@H](Cc1ccccc1)NC(=O)[C@H](CCCCN)NC(=O)OCc1ccccc1 | > 320 |
| CCOC(=O)/C=C/[C@H](CCC(N)=O)NC(=O)[C@H](Cc1ccccc1)NC(=O)[C@H](CC(C)C)NC(=O)C(C)C | > 320 |

Reference: ChEMBL document CHEMBL1131037, “Structure-based design, synthesis, and biological evaluation of irreversible human rhinovirus 3C protease inhibitors. 2. Peptide structure-activity studies” (J Med Chem, 1998)
